Measured values taken from ChEMBL document CHEMBL2331141, “Synthesis, characterization, screening and docking analysis of 4-anilinoquinazoline derivatives as tyrosine kinase inhibitors” (Eur J Med Chem, 2013).

What follows are compounds tested against T1, Epidermal growth factor receptor (Homo sapiens, UniProt P00533) (assay: Inhibition of EGFR (unknown origin)).
T1 sequence (P00533 whole entry): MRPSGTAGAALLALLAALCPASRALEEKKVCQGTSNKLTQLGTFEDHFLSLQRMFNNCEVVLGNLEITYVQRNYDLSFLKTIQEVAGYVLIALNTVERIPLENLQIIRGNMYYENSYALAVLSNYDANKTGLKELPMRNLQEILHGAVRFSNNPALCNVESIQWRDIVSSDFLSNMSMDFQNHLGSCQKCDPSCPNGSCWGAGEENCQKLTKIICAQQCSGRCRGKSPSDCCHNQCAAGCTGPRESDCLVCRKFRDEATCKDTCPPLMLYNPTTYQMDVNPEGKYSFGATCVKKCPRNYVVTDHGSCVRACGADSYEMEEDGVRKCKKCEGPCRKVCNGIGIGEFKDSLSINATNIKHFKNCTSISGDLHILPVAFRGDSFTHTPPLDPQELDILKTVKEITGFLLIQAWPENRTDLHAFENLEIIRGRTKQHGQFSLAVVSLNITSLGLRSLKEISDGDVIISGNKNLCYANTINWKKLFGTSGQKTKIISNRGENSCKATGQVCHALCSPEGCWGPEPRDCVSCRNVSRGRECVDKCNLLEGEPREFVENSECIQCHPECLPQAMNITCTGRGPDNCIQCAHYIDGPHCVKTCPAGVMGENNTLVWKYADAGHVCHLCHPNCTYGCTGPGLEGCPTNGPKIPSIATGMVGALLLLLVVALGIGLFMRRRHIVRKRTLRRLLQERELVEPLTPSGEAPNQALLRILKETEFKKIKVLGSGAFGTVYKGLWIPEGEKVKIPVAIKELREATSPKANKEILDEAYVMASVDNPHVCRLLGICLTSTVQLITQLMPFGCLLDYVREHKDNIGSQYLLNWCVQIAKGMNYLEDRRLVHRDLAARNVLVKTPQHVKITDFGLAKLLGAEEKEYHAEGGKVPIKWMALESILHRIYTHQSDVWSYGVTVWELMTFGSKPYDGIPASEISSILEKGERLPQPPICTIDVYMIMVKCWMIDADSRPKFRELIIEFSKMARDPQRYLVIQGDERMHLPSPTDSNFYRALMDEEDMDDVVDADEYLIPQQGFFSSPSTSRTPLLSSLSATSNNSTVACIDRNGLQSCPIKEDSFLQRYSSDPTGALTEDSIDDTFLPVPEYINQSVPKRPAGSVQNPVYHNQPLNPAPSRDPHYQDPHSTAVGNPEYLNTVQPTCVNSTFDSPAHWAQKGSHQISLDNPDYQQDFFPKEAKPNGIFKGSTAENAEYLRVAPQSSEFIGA

IC50	SMILES
4700 nM	COc1cc2ncnc(Nc3ccc(C(C)(F)F)cc3)c2cc1OC
10000 nM	COc1cc2ncnc(Nc3ccccc3C(F)(F)F)c2cc1OC
15 nM	COc1cc2ncnc(Nc3cccc(C(F)(F)F)c3)c2cc1OC

What follows are compounds tested against T1, Epidermal growth factor receptor (assay: Inhibition of EGFR (unknown origin) using biotinylated-PTP1B (Tyr66) as substrate incubated for 5 mins prior to substrate addition measured after 1 hr by ELISA).

SMILES	IC50
COc1cc2ncnc(Nc3cccc(-c4ccccc4)c3)c2cc1OC	127 nM
COc1cc2ncnc(Nc3ccc(F)c(Cl)c3)c2cc1OCCNCCN	12.1 nM
COc1cc2ncnc(Nc3ccc(F)c(Cl)c3)c2cc1OCCCNCCN	13.6 nM
COc1cc2ncnc(Nc3ccccc3)c2cc1OC	201 nM

The remaining lines, values ahead:

IC50	SMILES
413 nM	COc1cc2ncnc(Nc3cccc(C#N)c3)c2cc1OC
63.4 nM	COc1cc2ncnc(Nc3ccc(F)c(Cl)c3)c2cc1OCCO
127 nM	COc1cc2ncnc(Nc3cccc(SC)c3)c2cc1OC
